Bounds are passed on as bounds.

The assay concerns the target T1, ligand binding domain of human ROR gamma (Homo sapiens, UniProt P51449).
T1 construct: NM_001001523; expressed in transfected cells; host or cells: HEK293T
T1 sequence (P51449 247-497 isoform P51449-2): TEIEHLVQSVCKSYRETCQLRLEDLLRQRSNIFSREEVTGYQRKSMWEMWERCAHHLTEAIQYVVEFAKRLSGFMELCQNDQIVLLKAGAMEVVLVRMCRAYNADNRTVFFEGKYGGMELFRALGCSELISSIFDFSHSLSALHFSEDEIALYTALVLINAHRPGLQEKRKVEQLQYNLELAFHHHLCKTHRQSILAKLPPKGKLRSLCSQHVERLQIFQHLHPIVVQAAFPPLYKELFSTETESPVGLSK
The assay can be described thus: ROR gamma reporter gene assay (GAL4-RORγ LBD luciferase, Dual-Glo). It counts as cell-based. Particulars: HEK293T cells transfected with pM-ROR gamma, 8 concentrations 3.5 nM to 10.5 μM, 24 h incubation; read-out: result (pIC50, inhibition of RORγ transcriptional activity) (converted). In short, it runs like this: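 HEK293T cells co-transfected with GAL4-DBD fused to human RORγ LBD (aa 247-497), 5×UAS firefly luciferase reporter and CMV-renilla, in charcoal-stripped serum.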
(In general: In a reporter assay the amount or activity of a reporter protein is the signal.)
Take `CC(C)(C)CN(CC(=O)c1c[nH]c2cccc(Cl)c12)C(=O)c1cnn([C@H]2CC[C@](C)(C(=O)O)CC2)c1C(F)(F)F` [Example 352, trans-4-(4-((2-(4-chloro-1H-indol-3-yl)-2-oxoethyl)-(2,2-dimethylpropyl)carbamoyl)-5-(trifluoromethyl)pyrazol-1-yl)-1-methylcyclohexane-1-carboxylic acid]: the IC50 is 4.07e+06 pM.
Turning to `C[C@]1(C(=O)O)CC[C@H](n2ncc(C(=O)N(CCN3CCCC(F)C3)CC(=O)c3c(Cl)cc(F)cc3Cl)c2C(F)(F)F)CC1` (stereo partly drawn) [Example 353, trans-4-(4-((2-(2,6-dichloro-4-fluorophenyl)-2-oxoethyl)-(2-(3-fluoropiperidin-1-yl)ethyl)carbamoyl)-5-(trifluoromethyl)pyrazol-1-yl)-1-methylcyclohexane-1-carboxylic acid], the IC50 was 178000 pM.
For `CC1(C)[C@@H]2C[C@H](N(C[C@H](O)c3c(F)cccc3Cl)C(=O)c3cnn([C@H]4CC[C@](C)(C(=O)O)CC4)c3C(F)(F)F)C[C@@H]21` [Example 354, trans-4-(4-((2-(2-chloro-6-fluorophenyl)-2-hydroxyethyl)((1R,3r,5S)-6,6-dimethylbicyclo[3.1.0]hexan-3-yl)carbamoyl)-5-(trifluoromethyl)-1H-pyrazol-1-yl)-1-methylcyclohexanecarboxylic acid] the value was 513000 pM.
For `CC1(C)[C@@H]2C[C@H](N(C[C@@H](O)c3c(F)cccc3Cl)C(=O)c3cnn([C@H]4CC[C@](C)(C(=O)O)CC4)c3C(F)(F)F)C[C@@H]21` [Example 355, trans-4-(4-((2-(2-chloro-6-fluorophenyl)-2-hydroxyethyl)((1R,3r,5S)-6,6-dimethylbicyclo[3.1.0]hexan-3-yl)carbamoyl)-5-(trifluoromethyl)-1H-pyrazol-1-yl)-1-methylcyclohexanecarboxylic acid] the value was 21900 pM; for `COc1cccc(Cl)c1[C@@H](O)CN(CC(C)(C)C)C(=O)c1cnn([C@H]2CC[C@](C)(C(=O)O)CC2)c1C(F)(F)F` [Example 356, trans-4-(4-(((2R)-2-(2-chloro-6-methoxyphenyl)-2-hydroxyethyl)-(2,2-dimethylpropyl)carbamoyl)-5-(trifluoromethyl)pyrazol-1-yl)-1-methylcyclohexane-1-carboxylic acid], 102000 pM; for `COc1cccc(Cl)c1[C@H](O)CN(CC(C)(C)C)C(=O)c1cnn([C@H]2CC[C@](C)(C(=O)O)CC2)c1C(F)(F)F` [Example 357, trans-4-(4-(((2S)-2-(2-chloro-6-methoxyphenyl)-2-hydroxyethyl)-(2,2-dimethylpropyl)carbamoyl)-5-(trifluoromethyl)pyrazol-1-yl)-1-methylcyclohexane-1-carboxylic acid], ≥ 1e+07 pM.
For `CC(C)(C)CN(CC(=O)c1c(Cl)cccc1Cl)C(=O)c1cnn([C@H]2CC[C@](C)(C(=O)O)CC2)c1Cl` [Example 358, trans-4-(5-chloro-4-((2-(2,6-dichlorophenyl)-2-oxoethyl)-(2,2-dimethylpropyl)carbamoyl)pyrazol-1-yl)-1-methylcyclohexane-1-carboxylic acid] the value was 61700 pM; for `Cc1cc(Cl)c(C(=O)CN(CC(C)(C)C)C(=O)c2cnn([C@H]3CC[C@](C)(C(=O)O)CC3)c2Cl)c(Cl)c1` [Example 359, trans-4-(5-chloro-4-((2-(2,6-dichloro-4-methylphenyl)-2-oxoethyl)-(2,2-dimethylpropyl)carbarnoyl)pyrazol-1-yl)-1-methylcyclohexane-1-carboxylic acid], 26300 pM; for `Cc1[nH]c2cccc(Cl)c2c1CCN(CC(C)(C)C)C(=O)c1cnn([C@H]2CC[C@](C)(C(=O)O)CC2)c1C(F)(F)F` [Example 360, trans-4-(4-(2-(4-chloro-2-methyl-1H-indol-3-yl)ethyl-(2,2-dimethylpropyl)carbamoyl)-5-(trifluoromethyl)pyrazol-1-yl)-1-methylcyclohexane-1-carboxylic acid], 178000 pM.
Consider `CC1(C)[C@@H]2C[C@H](N(CC(=O)c3c(Cl)cccc3Cl)C(=O)c3cnn([C@H]4CC[C@](C)(C(=O)O)CC4)c3Cl)C[C@@H]21` [Example 363, trans-4-(5-chloro-4-((2-(2,6-dichlorophenyl)-2-oxoethyl)((1R,3r,5S)-6,6-dimethylbicyclo[3.1.0]hexan-3-yl)carbamoyl)-1H-pyrazol-yl)-1-methylcyclohexanecarboxylic acid], for which the IC50 was 13200 pM.
To `Cc1c(C(=O)N(CC(=O)c2c(Cl)cccc2Cl)[C@H]2C[C@@H]3[C@H](C2)C3(C)C)cnn1[C@H]1CC[C@](C)(C(=O)O)CC1` [Example 364, trans-4-(4-((2-(2,6-dichlorophenyl)-2-oxoethyl)((1R,3r,5S)-6,6-dimethylbicyclo[3.1.0]hexan-3-yl)carbamoyl)-5-methyl-1H-pyrazol-1-yl)-1-methylcyclohexanecarboxylic acid] belongs 45700 pM; to `Cc1cc(Cl)c(C(=O)CN(C(=O)c2cnn([C@H]3CC[C@](C)(C(=O)O)CC3)c2C)[C@H]2C[C@@H]3[C@H](C2)C3(C)C)c(Cl)c1` [Example 365, trans-4-(4-((2-(2,6-dichloro-4-methylphenyl)-2-oxoethyl)((1R,3r,5S)-6,6-dimethylbicyclo[3.1.0]hexan-3-yl)carbamoyl)-5-methyl-1H-pyrazol-1-yl)-1-methylcyclohexanecarboxylic acid], 30900 pM; to `Cc1cc(Cl)c(C(=O)CN(C(=O)c2cnn([C@H]3CC[C@](C)(C(=O)O)CC3)c2Cl)[C@H]2C[C@@H]3[C@H](C2)C3(C)C)c(Cl)c1` [Example 366, trans-4-(5-chloro-4-((2-(2,6-dichloro-4-methylphenyl)-2-oxoethyl)((1R,3r,5S)-6,6-dimethylbicyclo[3.1.0]hexan-3-yl)carbamoyl)-1H-pyrazol-1-yl)-1-methylcyclohexanecarboxylic acid], 15100 pM.
For `CC1(C)[C@@H]2C[C@H](N(CC(=O)c3c(Cl)cncc3Cl)C(=O)c3cnn([C@H]4CC[C@](C)(C(=O)O)CC4)c3Cl)C[C@@H]21` [Example 367, trans-4-(5-chloro-4-((2-(3,5-dichloropyridin-4-yl)-2-oxoethyl)((1R,3r,5S)-6,6-dimethylbicyclo[3.1.0]hexan-3-yl)carbamoyl)-1H-pyrazol-1-yl)-1-methylcyclohexanecarboxylic acid] the value was 30200 pM; for `CC1(C)[C@@H]2C[C@H](N(C[C@H](O)c3ccccc3Cl)C(=O)c3cnn([C@H]4CC[C@](C)(C(=O)O)CC4)c3C(F)(F)F)C[C@@H]21` [Example 368, trans-4-(4-((2-(2-chlorophenyl)-2-hydroxyethyl)((1R,3r,5S)-6,6-dimethylbicyclo[3.1.0]hexan-3-yl)carbamoyl)-5-(trifluoromethyl)-1H-pyrazol-1-yl)-1-methylcyclohexanecarboxylic acid], 191000 pM.

For the origin of these results see patent publication US9365522B2, “Pyrazole amide derivative” (AMGEN INC., priority 2015, dated 2016).
